For test [1], the target named is T1, Acetylcholinesterase (Electrophorus electricus, UniProt O42275). In words: Inhibition of electric eel AChE by Lineweaver-Burk plot.
Test [2] in a line: Neuroprotective activity against H2O2-induced cell death in rat PC12 cells assessed as cell viability at 10 uM after 24 hrs by MTT assay relative to control. It is filed as functional. The following applies: PC-12, 24 h, read-out: Activity.
Test [3] deals with T1, Acetylcholinesterase.
Description: Inhibition of electric eel AChE using acetylthiocholine iodide as substrate preincubated for 10 mins followed by substrate addition by Ellman's method
The next test addresses Cholinesterase (Equus caballus, UniProt P81908).

Sequence of Cholinesterase (P81908 whole entry): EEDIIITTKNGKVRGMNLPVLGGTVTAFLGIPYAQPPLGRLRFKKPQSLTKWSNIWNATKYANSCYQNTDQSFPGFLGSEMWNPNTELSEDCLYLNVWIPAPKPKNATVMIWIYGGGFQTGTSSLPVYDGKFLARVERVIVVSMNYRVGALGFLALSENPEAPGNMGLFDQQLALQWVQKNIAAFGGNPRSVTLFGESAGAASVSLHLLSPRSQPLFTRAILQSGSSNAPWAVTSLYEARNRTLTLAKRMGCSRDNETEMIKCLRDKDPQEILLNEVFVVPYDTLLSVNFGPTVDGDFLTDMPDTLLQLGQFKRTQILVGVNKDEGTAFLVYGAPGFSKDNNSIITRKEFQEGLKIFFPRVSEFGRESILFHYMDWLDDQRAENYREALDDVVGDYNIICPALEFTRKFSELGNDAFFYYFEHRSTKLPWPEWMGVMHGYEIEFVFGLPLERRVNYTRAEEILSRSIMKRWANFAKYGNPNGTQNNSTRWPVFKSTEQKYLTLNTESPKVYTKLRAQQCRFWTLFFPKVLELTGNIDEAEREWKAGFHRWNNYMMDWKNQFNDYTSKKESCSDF
T1 sequence (O42275 whole entry): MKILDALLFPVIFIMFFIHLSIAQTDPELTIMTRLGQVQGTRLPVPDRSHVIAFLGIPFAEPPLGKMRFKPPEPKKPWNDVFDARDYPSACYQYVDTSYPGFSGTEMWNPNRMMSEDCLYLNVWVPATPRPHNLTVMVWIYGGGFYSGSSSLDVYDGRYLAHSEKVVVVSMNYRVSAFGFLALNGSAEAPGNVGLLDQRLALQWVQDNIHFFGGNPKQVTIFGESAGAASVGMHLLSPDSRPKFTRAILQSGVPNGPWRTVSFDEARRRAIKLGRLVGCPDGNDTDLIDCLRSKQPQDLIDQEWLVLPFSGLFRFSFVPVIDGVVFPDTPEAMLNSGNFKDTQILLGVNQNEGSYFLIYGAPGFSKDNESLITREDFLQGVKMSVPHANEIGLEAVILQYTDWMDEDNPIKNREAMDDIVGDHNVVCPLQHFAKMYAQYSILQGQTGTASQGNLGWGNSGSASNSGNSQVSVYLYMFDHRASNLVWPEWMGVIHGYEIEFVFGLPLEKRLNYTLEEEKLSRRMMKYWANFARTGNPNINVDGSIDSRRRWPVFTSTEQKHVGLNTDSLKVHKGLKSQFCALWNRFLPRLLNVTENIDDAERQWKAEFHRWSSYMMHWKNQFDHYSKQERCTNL

The term Ki denotes a dissociation constant, usually derived from enzyme kinetics or from competition with a known ligand. A low value points to tighter binding. The IC50 is the concentration needed to halve the response being measured. `COc1ccc(C2c3c(n[nH]c3C)Oc3nc4c(c(N)c32)CCCC4)cc1OC` (racemic) gave a Ki at Acetylcholinesterase [1] of 490 nM. The viability at 10 µM in test [2] was 48.4%. For the same molecule, the IC50 was 190 nM at Acetylcholinesterase [3] and greater than 100000 nM at Cholinesterase.

As for `Cc1[nH]nc2c1C(c1ccc(F)cc1)c1c(nc3c(c1N)CCCC3)O2` (racemic), the IC50 was 810 nM at Acetylcholinesterase [3] and 25000 nM against Cholinesterase.

For the molecule `COc1ccccc1C1c2c(n[nH]c2C)Oc2nc3c(c(N)c21)CCCC3` (racemic), the IC50 on Acetylcholinesterase [3] is greater than 10000 nM; on Cholinesterase, greater than 100000 nM.

With `Cc1[nH]nc2c1C(c1cccc([N+](=O)[O-])c1)c1c(nc3c(c1N)CCCC3)O2` (racemic), the IC50 on Acetylcholinesterase [3] was 3270 nM; on Cholinesterase it was greater than 100000 nM.

Take `COc1cc(C2c3c(n[nH]c3C)Oc3nc4c(c(N)c32)CCCC4)cc(OC)c1OC` (racemic): the IC50 was 2180 nM against Acetylcholinesterase [3] and greater than 100000 nM against Cholinesterase.

Take `COc1ccc(OC)c(C2c3c(n[nH]c3C)Oc3nc4c(c(N)c32)CCCC4)c1` (racemic): the IC50 against Acetylcholinesterase [3] was 500 nM; on Cholinesterase it was greater than 100000 nM.

For `O=c1c(O)c(-c2ccc(O)c(O)c2)oc2cc(O)cc(O)c12` [QUERCETIN], the viability at 10 µM in test [2] stood at 51.6%.

As for `Cc1[nH]nc2c1C(c1ccccc1F)c1c(nc3c(c1N)CCCC3)O2` (racemic), the IC50 turned out to be 590 nM against Acetylcholinesterase [3] and 33000 nM at Cholinesterase.

Regarding `Cc1[nH]nc2c1C(c1cccc(Cl)c1Cl)c1c(nc3c(c1N)CCCC3)O2` (racemic), the IC50 against Acetylcholinesterase [3] was 870 nM; on Cholinesterase, greater than 100000 nM.

As to `Cc1[nH]nc2c1C(c1cccc3ccccc13)c1c(nc3c(c1N)CCCC3)O2` (racemic), the IC50 on Acetylcholinesterase [3] is 320 nM; at Cholinesterase, 15000 nM.

For `Cc1[nH]nc2c1C(c1cccs1)c1c(nc3c(c1N)CCCC3)O2` (racemic), the IC50 against Acetylcholinesterase [3] stood at 720 nM; on Cholinesterase, 16000 nM.

In the case of `Cc1ccc(C2c3c(n[nH]c3C)Oc3nc4c(c(N)c32)CCCC4)cc1` (racemic), the IC50 came to 750 nM at Acetylcholinesterase [3] and 4500 nM against Cholinesterase.

For `COc1ccc(C2c3c(n[nH]c3C)Oc3nc4c(c(N)c32)CCCC4)cc1` (racemic), the IC50 against Acetylcholinesterase [3] was 310 nM; at Cholinesterase it was greater than 100000 nM.

The record behind these values is ChEMBL document CHEMBL3351779, “New tetracyclic tacrine analogs containing pyrano[2,3-c]pyrazole: efficient synthesis, biological assessment and docking simulation study” (Eur J Med Chem, 2015).
